Data published in ChEMBL document CHEMBL1131830, “Total synthesis of the potent proteasome inhibitor epoxomicin: a useful tool for understanding proteasome biology” (Bioorg Med Chem Lett, 1999).

System: Proteasome
Test: Inhibitory activity against 20S proteosome
Assay type: subcellular

k obs / 1 [M⁻¹ s⁻¹] | Compound
246 | CC[C@@H](C)[C@H](NC(=O)[C@H]([C@@H](C)CC)N(C)C(C)=O)C(=O)N[C@H](C(=O)N[C@@H](CC(C)C)C(=O)[C@@]1(C)CO1)[C@@H](C)O
37200 | CC[C@H](C)[C@H](NC(=O)[C@H]([C@@H](C)CC)N(C)C(C)=O)C(=O)N[C@H](C(=O)N[C@@H](CC(C)C)C(=O)[C@@]1(C)CO1)[C@@H](C)O
